According to PMC10993450, “New benzimidazole derivative compounds with in vitro fasciolicidal properties” (Parasites & Vectors, 2024):
“And” between values parts separate entries of the source, which are not always exact repeats. Equal entries are not always repeated.

Columns and labels:
[1] = Intestinal tolerability assay on murine intestinal organoids; type: cell-based, mouse; conditions: C57BL/6, mouse, murine small-intestinal organoids, 72 h
Protocol: The murine intestinal organoid cultures were prepared following Stemcell Technologies™ protocols (https://www.stemcell.com/intestinal-epithelial-organoid-culture-with-intesticult-organoid-growth-medium-mouse-lp.html#protocols). Small intestine sections from C57BL/6 mice were excised, washed with ice-cold PBS, minced, and 2 mm segments were washed extensively. The segments were treated with Gentle Cell Dissociation Reagent (Stemcell Technologies™, Canada), resuspended in ice-cold PBS with 0.1% BSA and filtered. This process was repeated four times, resulting in four fractions. Cells from each fraction were centrifuged, washed, and resuspended in ice-cold DMEM/F12 supplemented with glutamine and HEPES 15 mM. Each fraction was mixed with Geltrex GFR LDEV-free (Gibco, Thermo Fisher Scientific, USA) and IntestiCult™ Organoid Grow Medium Mouse (Stemcell Technologies™, Canada), added to a 24-well plate and incubated at 37 °C for 10 min for matrix polymerization. The organoids were cultured in IntestiCult™ Organoid Grow Medium Mouse, with medium changes every 2 days and splitting after 7 days.
For intestinal tolerability assays, selected hit compounds were tested in mouse intestinal organoids at 25 and 50 µM final concentrations. The protocol, based on a previous work, involved the addition of Gentle Cell Dissociation Reagent (Stemcell Technologies™, Canada) on matrix domes, the disruption of the matrix, and the incubation the suspension. After centrifugation, cells were resuspended in DMEM/F12 supplemented with glutamine and HEPES 15 mM and centrifugated again. The pellet was resuspended in a mix of Geltrex GFR LDEV-free and IntestiCult™ Organoid Grow Medium Mouse. The mix was plated in 384-well plates, and after 4 days, mature organoids were exposed to the compounds. The positive control was hydrogen peroxide (0.15% v/v), and the negative control was DMSO (0.2%). Viability after 72 h was assessed using the alamarBlue assay.

[2] = system: Fasciola hepatica eggs (ABZ-susceptible isolate); experiment: Egg hatch test (EHT), ABZ-susceptible isolates; type: cell-based; conditions: mean ± SEM; for % Ovicidal activity: ABZ-susceptible isolate; for killing at 5 µM: Fasciola hepatica, read-out: % Ovicidal activity susceptible isolate
Protocol: Eggs were recovered from gallbladders of cattle naturally infected with F. hepatica at the municipal slaughterhouse of León (Spain). For this, the bile of the gallbladders was filtered through sieves of different diameter size pores (500, 150, and 20 µm) using pressurized tap water. Eggs retained on the 20 µm pore size sieve were collected and stored at 4 °C in darkness until required within a maximum period of 2 months.
The susceptibility of the isolates to ABZ was confirmed by the egg hatch test (EHT) using an ABZ discriminant dose (DD) of 0.5 µM [23]. The technique is described in more detail below.
The in vitro anthelmintic activity of a total of 70 BZDs was initially tested on F. hepatica eggs recovered from gallbladders of cattle naturally infected with ABZ-susceptible isolates. The first screening was performed using a fixed concentration of 50 µM. […] Therefore, only BZDs with ovicidal activities over 80% progressed to the next assays at 10 µM. […] At this last concentration, the ovicidal effect of ABZ, ABZSO, and OXF was also evaluated.
(§1) The in vitro EHT described in the current study was based on previous studies. Briefly, 100–120 eggs were incubated in 990 µL of water and 10 μL of each working solution at 25 °C in the dark for a period of 12 h. After incubation, eggs were gently washed with tap water three times to facilitate compound removal and kept in darkness at 25 °C for 14 days. After this period, eggs were exposed to light for 2 h to stimulate the hatching of eggs. Then, hatched and unhatched eggs were evaluated and counted using an optical microscope. The term “hatched eggs” includes both hatched and embryonated eggs. Negative control eggs were incubated with 10 μL of DMSO in 990 μL of water, reaching a maximum DMSO concentration of 1% (v/v), while ABZ at 0.5 µM was used as positive control. Each compound at a specific concentration was tested in triplicate in the same EHT and repeated at least two different days.
With the aim to characterize the susceptibility of isolates from naturally infected cattle, the drug used in the EHT was ABZ, tested at a discriminant dose of 0.5 μM. Drug susceptibility is assumed when the ovicidal activity is over 70%, resistance when is lower than 40%, and a suspicion of resistance when activity is between these values at 0.5 μM.
(§2) The efficacy of each compound and drug was calculated as its ovicidal activity following the formula below: Ovicidal activity%=100×%eggs hatched in negative control-%egg hatched after drug incubation/%egg hatched in control.

[3] = system: Fasciola hepatica eggs (ABZ-resistant isolate); experiment: Egg hatch test (EHT), ABZ-resistant isolate; type: cell-based; conditions: 5 µM, mean ± SEM
Source text: F. hepatica eggs were recovered after washing the gallbladder of three naturally infected sheep belonging to a flock suspected to be resistant to ABZ. From these eggs, metacercariae were produced at the Centro de Investigaciones de Mabegondo (AGACAL, Xunta de Galicia, Spain) following a previous protocol. These metacercariae were used to infect eight sheep with a dose of 200 metacercariae. The infection was confirmed individually 3 months after the infection by coprological analysis using a sedimentation technique. At that point, sheep were randomly located in two groups of four animals: one treated with a therapeutic dose of ABZ (7.5 mg/kg) and the other one only with water, as control group. To assess the efficacy of ABZ in this isolate, all sheep were humanely euthanized by an intravenous administration of a lethal dose of sodium pentobarbital (Dolethal®, Vetoquinol, Spain) 2 weeks later for fluke recovery and counting. Afterwards, the in vivo efficacy of ABZ was calculated as the percentage of adult worm reduction compared with the untreated control. Additionally, the number of eggs per gram of feces (EPG) was estimated on the treatment day (mentioned as day 0) and 14 days later to determine drug efficacy by means of the fecal egg count reduction test (FECRT).
During the necropsy, gallbladders from sheep belonging to the untreated group were taken to collect the eggs and carry out the in vitro EHT, while flukes collected from livers were used to conduct the adult viability test (AVT).
Those BZDs with an activity higher than 80% at a concentration of 10 µM were also screened on eggs and adults from the ABZ resistant isolate.
as §1, §2

[4] = Cytotoxicity assay, alamarBlue; type: cell-based, human; conditions: human, HepG2 cells; 72 h exposure, alamarBlue; read-out: CC50 Hep-G2
Protocol: The effect of the BZDs on cell viability was assessed on a human hepatocarcinoma HepG2 (ATCC® HB-8065™, USA) cell line. Only compounds screened at a concentration of 10 µM were evaluated. The detailed protocol is described in a previous study carried out by our research group. Briefly, 10,000 cells were seeded on 96-well plates and incubated with different concentrations of the compounds ranging from 1 to 100 µM at 37 °C and 5% CO2. After 72 h of exposure, viability of the cells was assessed using the alamarBlue (Fisher Scientific®, Spain) staining method according to the manufacturer’s recommendations.
The data are represented as mean ± standard error of media (SEM).

[5] = system: Teladorsagia circumcincta eggs; conditions: type II BZDs; read-out: IC50 against T. circumcincta eggs; cited from earlier work

SMILES	viability at 72 h, 25 µM [1] [%]	viability at 72 h, 50 µM [1] [%]	% Ovicidal activity ([2]; 10 µM) [%]	% Ovicidal activity ([2]; 10 µM, listed as BDZ-31) [%]	% Ovicidal activity ([2]; 10 µM, listed as BZD-31) [%]	% Ovicidal activity ([2]; 50 µM) [%]	% Ovicidal activity ([2]; 50 µM, listed as BZD-31)	killing at 5 µM [2] [%]	% Ovicidal activity resistant isolate [3]	CC50 at 72 h [4] [nM]	IC50 [5] [nM]	% Ovicidal activity ([2]; 50 µM, listed as BZD-46)	% Ovicidal activity resistant isolate ([3]; listed as BZD-46)	% Ovicidal activity ([2]; 10 µM, listed as BZD-56) [%]	% Ovicidal activity ([2]; 50 µM, listed as BZD-56)	% Ovicidal activity resistant isolate ([3]; listed as BZD-56)	% Ovicidal activity ([2]; 10 µM, listed as BZD-59) [%]	% Ovicidal activity ([2]; 50 µM, listed as BZD-59)	% Ovicidal activity resistant isolate ([3]; listed as BZD-59)
Cc1ccc2[nH]c(NCc3cccs3)nc2c1 [BZD31]	60.5	52.4	99.58 ± 00.26	99.5	≥ 80	100.00 ± 0.00	higher than 80%	74	53% and 53.24 ± 20.94%	> 50000									
Cc1ccc2[nH]c(NC(=O)c3ccccc3)nc2c1 [BZD46]	99.7	> 87	83.90 ± 02.87			98.59 ± 0.94		71.2 ± 9.91	11.06 ± 05.30%	> 100000	~1000	higher than 80%	below 13%						
COc1ccc2[nH]c(NC(=O)c3ccccc3)nc2c1 [BZD56]	82.5	> 87	93.93 ± 01.90			99.58 ± 0.22		< 90	12.39 ± 03.71%	> 100000	~1000			≥ 80	higher than 80%	below 13%			
O=C(Nc1nc2cc(Cl)ccc2[nH]1)c1ccccc1 [BZD59]	82.7	56.7	91.16 ± 02.58			100.00 ± 0.00		73.5 ± 8.88	06.28 ± 05.20%	> 100000	~1000						≥ 80	higher than 80%	below 13%
